What all share (format): biochemical
Holding throughout (conditions): Caliper assay at 1 mM ATP

Assay [1] addresses JAK2 (Homo sapiens (Human), UniProt O60674). Briefly: JAK Caliper Enzyme Assay at 1 mM ATP (JAK2). The protocol:
(§1) JAK Caliper Enzyme Assay at 1 mM ATP
(§2) Test article was solubilized in dimethyl sulfoxide (DMSO) to a stock concentration of 30 mM. An 11-point half log dilution series was created in DMSO with a top concentration of 600 μM. […] The compound plates were diluted 1 to 60 resulting in a top final assay compound concentration of 10 μM and a 2% DMSO concentration.
(§3) Test article and assay controls were added to a 384-well plate. Reaction mixtures contained 20 mM HEPES, pH 7.4, 10 mM magnesium chloride, 0.01% bovine serum albumin (BSA), 0.0005% Tween 20, 1 mM ATP and 1 μM peptide substrate. […] Enzyme concentrations and incubation times were optimized for each new enzyme preps and were modified slightly over time to ensure 20%-30% phosphorylation. The assays were stopped with a final concentration of 10 mM EDTA, 0.1% Coating Reagent and 100 mM HEPES, pH=7.4. The assay plates were placed on a Caliper Life Science Lab Chip 3000 (LC3000) instrument, and each well was sampled using appropriate separation conditions to measure the unphosphorylated and phosphorylated peptide.

Assay [2] has as its target JAK3 (Homo sapiens (Human), UniProt P52333). Briefly: JAK Caliper Enzyme Assay at 1 mM ATP (JAK3). As to the method: as §1, §2, §3
The target in assay [3] is JAK1 (Homo sapiens (Human), UniProt P23458). The experiment in a line: JAK Caliper Enzyme Assay at 1 mM ATP (JAK1). The protocol: as §1, §2, §3
Chain of JAK1 (P23458 whole entry, species assumed): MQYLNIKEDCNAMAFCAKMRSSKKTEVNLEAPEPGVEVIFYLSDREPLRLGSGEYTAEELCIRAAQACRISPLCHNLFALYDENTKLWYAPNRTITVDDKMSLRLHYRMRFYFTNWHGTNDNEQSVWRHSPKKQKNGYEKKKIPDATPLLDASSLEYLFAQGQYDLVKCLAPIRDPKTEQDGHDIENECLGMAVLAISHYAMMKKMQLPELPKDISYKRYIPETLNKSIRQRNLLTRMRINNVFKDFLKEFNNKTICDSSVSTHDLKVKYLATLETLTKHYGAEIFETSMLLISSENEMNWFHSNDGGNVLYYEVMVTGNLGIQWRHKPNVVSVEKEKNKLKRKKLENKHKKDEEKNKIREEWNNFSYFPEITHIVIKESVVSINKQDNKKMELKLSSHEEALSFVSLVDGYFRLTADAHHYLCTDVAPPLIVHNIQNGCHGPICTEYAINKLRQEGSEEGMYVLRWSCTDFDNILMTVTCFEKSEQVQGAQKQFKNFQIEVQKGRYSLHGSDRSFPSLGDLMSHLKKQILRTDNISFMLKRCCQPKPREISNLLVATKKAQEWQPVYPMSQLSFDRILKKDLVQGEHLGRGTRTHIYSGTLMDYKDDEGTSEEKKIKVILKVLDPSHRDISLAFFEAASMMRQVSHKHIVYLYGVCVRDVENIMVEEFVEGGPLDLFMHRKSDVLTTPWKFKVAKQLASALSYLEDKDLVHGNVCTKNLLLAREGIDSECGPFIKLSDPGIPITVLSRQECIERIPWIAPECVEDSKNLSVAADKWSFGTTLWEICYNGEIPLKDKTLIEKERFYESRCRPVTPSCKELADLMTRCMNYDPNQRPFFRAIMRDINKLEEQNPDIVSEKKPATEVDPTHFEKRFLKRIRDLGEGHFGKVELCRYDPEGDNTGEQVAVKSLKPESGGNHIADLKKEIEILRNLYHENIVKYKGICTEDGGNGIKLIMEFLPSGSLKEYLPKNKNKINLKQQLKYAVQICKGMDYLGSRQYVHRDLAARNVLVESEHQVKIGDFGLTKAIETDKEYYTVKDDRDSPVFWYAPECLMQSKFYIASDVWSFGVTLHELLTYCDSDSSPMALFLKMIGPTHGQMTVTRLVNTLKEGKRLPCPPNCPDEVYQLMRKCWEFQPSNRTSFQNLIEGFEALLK
The target of assay [4] is TYK2 (Homo sapiens (Human), UniProt P29597). The experiment in a line: JAK Caliper Enzyme Assay at 1 mM ATP (TYK2). The protocol:
as §1, §2, §3

Structures are written as SMILES.

A word on the IC50: it is the concentration needed to halve the response being measured. Low readings indicate greater potency, high ones weaker potency.

Chain of JAK2 (O60674 whole entry, species assumed): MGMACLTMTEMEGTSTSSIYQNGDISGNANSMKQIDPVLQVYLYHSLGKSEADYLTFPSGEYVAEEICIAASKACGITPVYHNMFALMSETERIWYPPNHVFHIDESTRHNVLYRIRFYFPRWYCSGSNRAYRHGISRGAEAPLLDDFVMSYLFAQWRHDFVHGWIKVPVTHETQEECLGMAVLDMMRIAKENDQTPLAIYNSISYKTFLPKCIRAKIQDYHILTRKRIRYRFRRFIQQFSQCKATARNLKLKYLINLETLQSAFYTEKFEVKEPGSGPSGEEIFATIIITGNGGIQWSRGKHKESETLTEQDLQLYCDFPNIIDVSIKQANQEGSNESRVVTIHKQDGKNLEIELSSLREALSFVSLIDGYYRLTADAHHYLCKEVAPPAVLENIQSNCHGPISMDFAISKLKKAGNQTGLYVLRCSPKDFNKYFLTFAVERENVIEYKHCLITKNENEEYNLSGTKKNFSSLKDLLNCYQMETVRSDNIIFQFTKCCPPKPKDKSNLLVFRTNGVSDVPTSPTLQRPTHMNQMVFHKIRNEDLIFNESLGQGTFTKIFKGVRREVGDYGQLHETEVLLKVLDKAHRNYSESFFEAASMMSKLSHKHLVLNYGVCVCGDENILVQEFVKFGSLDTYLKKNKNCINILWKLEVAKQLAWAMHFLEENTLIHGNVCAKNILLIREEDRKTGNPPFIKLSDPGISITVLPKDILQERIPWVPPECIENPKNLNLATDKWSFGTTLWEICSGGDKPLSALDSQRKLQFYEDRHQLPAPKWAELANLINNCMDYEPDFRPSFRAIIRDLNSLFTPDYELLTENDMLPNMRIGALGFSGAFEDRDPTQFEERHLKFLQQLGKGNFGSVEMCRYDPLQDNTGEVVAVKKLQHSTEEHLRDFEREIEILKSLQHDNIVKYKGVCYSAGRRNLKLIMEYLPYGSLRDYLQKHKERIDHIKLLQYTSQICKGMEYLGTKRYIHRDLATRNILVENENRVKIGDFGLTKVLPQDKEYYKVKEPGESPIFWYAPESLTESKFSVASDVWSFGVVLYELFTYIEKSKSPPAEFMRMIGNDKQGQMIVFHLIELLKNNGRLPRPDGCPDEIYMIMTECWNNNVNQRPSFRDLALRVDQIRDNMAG
Chain of JAK3 (P52333 whole entry, species assumed): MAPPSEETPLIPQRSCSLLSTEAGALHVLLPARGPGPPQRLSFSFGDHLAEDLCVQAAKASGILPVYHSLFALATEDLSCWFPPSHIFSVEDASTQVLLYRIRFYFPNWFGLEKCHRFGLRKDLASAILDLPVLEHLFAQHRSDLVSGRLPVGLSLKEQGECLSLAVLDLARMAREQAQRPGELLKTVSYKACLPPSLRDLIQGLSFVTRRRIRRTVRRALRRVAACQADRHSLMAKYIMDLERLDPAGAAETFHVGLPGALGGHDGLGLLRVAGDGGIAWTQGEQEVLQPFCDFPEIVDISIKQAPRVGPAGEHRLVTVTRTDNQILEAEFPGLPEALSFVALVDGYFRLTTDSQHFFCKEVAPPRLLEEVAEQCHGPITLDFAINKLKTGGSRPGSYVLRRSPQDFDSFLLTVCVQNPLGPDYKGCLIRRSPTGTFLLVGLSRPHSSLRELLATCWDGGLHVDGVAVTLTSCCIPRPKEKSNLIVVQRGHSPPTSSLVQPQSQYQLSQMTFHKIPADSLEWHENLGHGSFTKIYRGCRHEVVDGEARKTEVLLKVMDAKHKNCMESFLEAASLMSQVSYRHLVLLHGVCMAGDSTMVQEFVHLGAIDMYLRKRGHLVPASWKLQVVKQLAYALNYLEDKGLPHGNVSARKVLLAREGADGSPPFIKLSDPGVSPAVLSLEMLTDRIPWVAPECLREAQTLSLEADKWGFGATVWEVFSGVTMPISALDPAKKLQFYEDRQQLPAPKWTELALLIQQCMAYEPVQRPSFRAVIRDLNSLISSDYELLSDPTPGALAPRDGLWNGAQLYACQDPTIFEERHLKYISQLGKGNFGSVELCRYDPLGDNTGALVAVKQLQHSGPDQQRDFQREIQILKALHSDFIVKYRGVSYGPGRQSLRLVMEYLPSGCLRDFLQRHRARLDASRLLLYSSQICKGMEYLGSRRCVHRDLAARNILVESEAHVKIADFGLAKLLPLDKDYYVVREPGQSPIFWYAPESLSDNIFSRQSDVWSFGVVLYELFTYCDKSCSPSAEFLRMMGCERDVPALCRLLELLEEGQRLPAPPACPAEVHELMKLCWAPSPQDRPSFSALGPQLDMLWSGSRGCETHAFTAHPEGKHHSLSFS
Chain of TYK2 (P29597 whole entry, species assumed): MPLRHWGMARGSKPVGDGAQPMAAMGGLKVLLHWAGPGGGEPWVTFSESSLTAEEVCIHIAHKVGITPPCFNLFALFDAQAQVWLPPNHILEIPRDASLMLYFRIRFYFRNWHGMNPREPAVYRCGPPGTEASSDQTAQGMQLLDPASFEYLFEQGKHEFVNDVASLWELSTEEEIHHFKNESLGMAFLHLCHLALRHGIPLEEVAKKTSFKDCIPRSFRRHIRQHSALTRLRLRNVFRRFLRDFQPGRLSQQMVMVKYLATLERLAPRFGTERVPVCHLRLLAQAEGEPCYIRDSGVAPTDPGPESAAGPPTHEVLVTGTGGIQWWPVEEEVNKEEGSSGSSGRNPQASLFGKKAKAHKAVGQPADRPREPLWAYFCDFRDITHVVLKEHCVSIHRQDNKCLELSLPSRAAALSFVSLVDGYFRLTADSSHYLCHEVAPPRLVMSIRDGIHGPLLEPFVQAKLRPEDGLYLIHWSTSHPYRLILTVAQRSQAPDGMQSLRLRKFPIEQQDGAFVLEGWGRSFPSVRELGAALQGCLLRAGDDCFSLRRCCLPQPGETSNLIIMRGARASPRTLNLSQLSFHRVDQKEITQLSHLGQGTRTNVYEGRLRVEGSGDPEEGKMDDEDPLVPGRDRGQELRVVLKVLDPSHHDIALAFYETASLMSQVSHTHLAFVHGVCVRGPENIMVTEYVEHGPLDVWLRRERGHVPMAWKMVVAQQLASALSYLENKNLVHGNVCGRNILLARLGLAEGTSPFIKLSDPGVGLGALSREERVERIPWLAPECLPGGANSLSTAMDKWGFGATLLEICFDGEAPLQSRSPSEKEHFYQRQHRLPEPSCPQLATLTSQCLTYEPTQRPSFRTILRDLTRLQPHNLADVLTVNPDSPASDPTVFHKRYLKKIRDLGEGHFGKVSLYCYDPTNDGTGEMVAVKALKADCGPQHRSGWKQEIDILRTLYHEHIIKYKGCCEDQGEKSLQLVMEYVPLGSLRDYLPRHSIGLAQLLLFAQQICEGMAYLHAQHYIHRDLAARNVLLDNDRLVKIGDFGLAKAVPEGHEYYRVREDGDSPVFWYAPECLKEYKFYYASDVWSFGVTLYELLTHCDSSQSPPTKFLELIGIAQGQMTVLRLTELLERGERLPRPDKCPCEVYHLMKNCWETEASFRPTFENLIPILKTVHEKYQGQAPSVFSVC

As to `CNC(=O)c1n[nH]c2cc(-c3cc(F)c(O)cc3CC(F)(F)F)nc(NCC(C)C)c12` [Example 16, 6-[5-fluoro-4-hydroxy-2-(2,2,2-trifluoroethyl)phenyl]-N-methyl-4-[(2-methylpropyl)amino]-1H-pyrazolo[4,3-c]pyridine-3-carboxamide], the IC50 in assay [1] came to 23 nM; in assay [2] it was 131 nM; in assay [3], 6.3 nM; in assay [4], 66 nM.
The matching figures for `CCN(c1ccc(C)cc1CNc1nc(-c2cc(F)c(O)cc2CC(F)(F)F)cc2[nH]nc(C(N)=O)c12)S(C)(=O)=O` [Example 91, 4-({2-[ethyl(methylsulfonyl)amino]-5-methylbenzyl}amino)-6-[5-fluoro-4-hydroxy-2-(2,2,2-trifluoroethyl)phenyl]-1H-pyrazolo[4,3-c]pyridine-3-carboxamide]: 128 nM, 462 nM, 28.7 nM and 865 nM.
The matching figures for `CCc1cc(O)c(F)cc1-c1cc2[nH]nc(C(=O)NC)c2c(NCC(C)C)n1` [Example 5, 6-(2-ethyl-5-fluoro-4-hydroxyphenyl)-N-methyl-4-[(2-methylpropyl)amino]-1H-pyrazolo[4,3-c]pyridine-3-carboxamide]: 7.5 nM, 31.9 nM, 2.1 nM and 7 nM.
`CCN(c1ncc(Cl)cc1CNc1nc(-c2cc(F)c(O)cc2CC(F)(F)F)cc2[nH]nc(C(N)=O)c12)S(C)(=O)=O` [Example 71, 4-[({5-chloro-2-[ethyl(methylsulfonyl)amino]pyridin-3-yl}methyl)amino]-6-[5-fluoro-4-hydroxy-2-(2,2,2-trifluoroethyl)phenyl]-1H-pyrazolo[4,3-c]pyridine-3-carboxamide]: the IC50 is 156 nM in assay [1], 359 nM in assay [2], 44.1 nM in assay [3] and 2750 nM in assay [4].
`CCN(c1ncccc1CNc1nc(-c2cc(F)c(O)cc2CC(F)(F)F)cc2[nH]nc(C(=O)NC)c12)S(C)(=O)=O` [Example 63, 4-[({2-[ethyl(methylsulfonyl)amino]pyridin-3-yl}methyl)amino]-6-[5-fluoro-4-hydroxy-2-(2,2,2-trifluoroethyl)phenyl]-N-methyl-1H-pyrazolo[4,3-c]pyridine-3-carboxamide]: the IC50 in assay [1] turned out to be 22.5 nM; in assay [2], 82.1 nM; in assay [3] it was 5 nM; in assay [4] it was 107 nM.
On to `CCc1cc(O)c(F)cc1-c1cc2[nH]nc(-n3cccn3)c2c(NCc2ccccc2N(C)S(C)(=O)=O)n1` [Example 162, N-[2-({[6-(2-Ethyl-5-fluoro-4-hydroxyphenyl)-3-(1H-pyrazol-1-yl)-1H-pyrazolo[4,3-c]pyridin-4-yl]amino}methyl)phenyl]-N-methylmethanesulfonamide], for which the IC50 is 23.6 nM in assay [1], 90.6 nM in assay [2], 4.1 nM in assay [3] and 15.4 nM in assay [4].
In the same order, the values of `CCc1cc(O)c(F)cc1-c1cc2[nH]nc(-c3nnc(C)[nH]3)c2c(NCc2ccccc2N(C)S(C)(=O)=O)n1` [Example 165, N-[2-({[6-(2-Ethyl-5-fluoro-4-hydroxyphenyl)-3-(5-methyl-4H-1,2,4-triazol-3-yl)-1H-pyrazolo[4,3-c]pyridin-4-yl]amino}methyl)phenyl]-N-methylmethanesulfonamide] are 16.9 nM, 78 nM, 3.5 nM and 14.6 nM.
`CN(c1ccccc1CNc1nc(-c2cc(F)c(O)cc2CC(F)(F)F)cc2[nH]nc(C(N)=O)c12)S(C)(=O)=O` [Example 77, 6-[5-Fluoro-4-hydroxy-2-(2,2,2-trifluoroethyl)phenyl]-4-({2-[methyl(methylsulfonyl)amino]benzyl}amino)-1H-pyrazolo[4,3-c]pyridine-3-carboxamide]: the IC50 in assay [1] worked out at 15.1 nM; in assay [2], 63.6 nM; in assay [3], 3.3 nM; in assay [4], 27.1 nM.
The matching figures for `CCc1cc(O)c(F)cc1-c1cc2[nH]nc(-c3ncc[nH]3)c2c(NCc2ccccc2N(C)S(C)(=O)=O)n1` [Example 157, N-[2-({[6-(2-Ethyl-5-fluoro-4-hydroxyphenyl)-3-(1H-imidazol-2-yl)-1H-pyrazolo[4,3-c]pyridin-4-yl]amino}methyl)phenyl]-N-methylmethanesulfonamide]: 15 nM, 76.5 nM, 3.4 nM and 11.7 nM.
In the case of `CNC(=O)c1n[nH]c2cc(-c3cc(F)c(O)cc3CC(F)(F)F)nc(NCc3ccccc3N(C)S(=O)(=O)c3ccc(C)nc3)c12` [Example 69, 6-[5-fluoro-4-hydroxy-2-(2,2,2-trifluoroethyl)phenyl]-N-methyl-4-[(2-{methyl[(6-methylpyridin-3-yl)sulfonyl]amino}benzyl)amino]-1H-pyrazolo[4,3-c]pyridine-3-carboxamide], the IC50 is 63.7 nM in assay [1], 257 nM in assay [2], 16.2 nM in assay [3] and 66.8 nM in assay [4].
The matching figures for `CNC(=O)c1n[nH]c2cc(-c3cc(F)c(O)cc3CC(F)(F)F)nc(NCc3ncccc3N(C)S(C)(=O)=O)c12` [Example 55, 6-[5-Fluoro-4-hydroxy-2-(2,2,2-trifluoroethyl)phenyl]-N-methyl-4-[({3-[methyl(methylsulfonyl)amino]pyridin-2-yl}methyl)amino]-1H-pyrazolo[4,3-c]pyridine-3-carboxamide]: 13.7 nM, 54 nM, 2.1 nM and 45.9 nM.
On to `CCc1cc(O)c(F)cc1-c1cc2[nH]nc(C(=O)NC)c2c(N[C@@H](C)c2ccccc2N(C)S(C)(=O)=O)n1` [Example 39, 6-(2-Ethyl-5-fluoro-4-hydroxyphenyl)-N-methyl-4-{[(1S)-1-{2-[methyl(methylsulfonyl)amino]phenyl}ethyl]amino}-1H-pyrazolo[4,3-c]pyridine-3-carboxamide], for which the IC50 was found to be 48.2 nM in assay [1], 278 nM in assay [2], 32.3 nM in assay [3] and 320 nM in assay [4].
In the same order, the values of `CNC(=O)c1n[nH]c2cc(-c3cc(F)c(O)cc3CC(F)(F)F)nc(NCc3cc(C)cnc3N(C)S(C)(=O)=O)c12` [Example 67, 6-[5-fluoro-4-hydroxy-2-(2,2,2-trifluoroethyl)phenyl]-N-methyl-4-[({5-methyl-2-[methyl(methylsulfonyl)amino]pyridin-3-yl}methyl)amino]-1H-pyrazolo[4,3-c]pyridine-3-carboxamide] are 48.2 nM, 72.8 nM, 16.3 nM and 2030 nM.
In the same order, the values of `CNC(=O)c1n[nH]c2cc(-c3cc(F)c(O)cc3CC(F)(F)F)nc(NCc3ccccc3N(C)S(=O)(=O)c3cccnc3)c12` [Example 68, 6-[5-fluoro-4-hydroxy-2-(2,2,2-trifluoroethyl)phenyl]-N-methyl-4-({2-[methyl(pyridin-3-ylsulfonyl)amino]-benzyl}amino)-1H-pyrazolo[4,3-c]pyridine-3-carboxamide] are 72.7 nM, 253 nM, 14.2 nM and 72.3 nM.
`CN(c1ccccc1CNc1nc(-c2cc(F)c(O)cc2CC(F)(F)F)cc2[nH]nc(C(N)=O)c12)S(=O)(=O)CCCN1CCOCC1` [Example 66, 6-[5-fluoro-4-hydroxy-2-(2,2,2-trifluoroethyl)phenyl]-4-{[2-(methyl{[3-(morpholin-4-yl)propyl]sulfonyl}-amino)benzyl]amino}-1H-pyrazolo[4,3-c]pyridine-3-carboxamide]: the IC50 was 14.8 nM in assay [1], 60 nM in assay [2], 3.5 nM in assay [3] and 81.3 nM in assay [4].
For the compound `CNC(=O)c1n[nH]c2cc(-c3cc(F)c(O)cc3CC(F)(F)F)nc(NCc3ccccc3N(C)S(=O)(=O)c3cccc(O)c3)c12` [Example 32, 6-[5-Fluoro-4-hydroxy-2-(2,2,2-trifluoroethyl)phenyl]-4-[(2-{[(3-hydroxyphenyl)sulfonyl](methyl)amino}benzyl)amino]-N-methyl-1H-pyrazolo[4,3-c]pyridine-3-carboxamide], the IC50 came to 277 nM in assay [1], 839 nM in assay [2], 60.4 nM in assay [3] and 373 nM in assay [4].
In the same order, the values of `CN(c1ccc(O)cc1CNc1nc(-c2cc(F)c(O)cc2CC(F)(F)F)cc2[nH]nc(C(N)=O)c12)S(C)(=O)=O` [Example 92, 6-[5-Fluoro-4-hydroxy-2-(2,2,2-trifluoroethyl)phenyl]-4-({5-hydroxy-2-[methyl(methylsulfonyl)amino]benzyl}amino)-1H-pyrazolo[4,3-c]pyridine-3-carboxamide] are 13.5 nM, 45.7 nM, 2.1 nM and 14.5 nM.
For `CCc1cc(O)c(F)cc1-c1nc(NCc2ccccc2N(C)S(C)(=O)=O)c2c(C(=O)NC)n[nH]c2n1` [Example 93, 6-(2-Ethyl-5-fluoro-4-hydroxyphenyl)-N-methyl-4-((2-(N-methylmethylsulfonamido)benzyl)amino)-1H-pyrazolo[3,4-d]pyrimidine-3-carboxamide], the IC50 was 8.4 nM in assay [1], 27.4 nM in assay [2], 2 nM in assay [3] and 13.9 nM in assay [4].

The values are drawn from patent US9518052B2, “Pyrazolopyridines and pyrazolopyrimidines” (Pfizer Inc., priority 2014, dated 2016).
